Measured values: ChEMBL document CHEMBL5370566, “Flindissone, a Limonoid Isolated from Trichilia prieuriana, Is an LXR Agonist” (J Nat Prod, 2023)
Active and inactive are the calls of the source. The calls are words filed in the database; no cut-off is given here.

Legend:
HepG2 [1] = assay: Effect on LDLR mRNA expression level in human HepG2 cells at 5 uM by RT-qPCR analysis; assay type: functional, cell-based
[2] = biological target: T1, Oxysterols receptor LXR-alpha (Homo sapiens, UniProt Q13133); assay: Agonist activity at full length human LXRalpha transfected in HEK293T cells co-expressing ABCA1 assessed as increase in luciferase activity measured after 18 hrs by reporter gene assay; assay type: cell-based
T1 sequence (Q13133 whole entry): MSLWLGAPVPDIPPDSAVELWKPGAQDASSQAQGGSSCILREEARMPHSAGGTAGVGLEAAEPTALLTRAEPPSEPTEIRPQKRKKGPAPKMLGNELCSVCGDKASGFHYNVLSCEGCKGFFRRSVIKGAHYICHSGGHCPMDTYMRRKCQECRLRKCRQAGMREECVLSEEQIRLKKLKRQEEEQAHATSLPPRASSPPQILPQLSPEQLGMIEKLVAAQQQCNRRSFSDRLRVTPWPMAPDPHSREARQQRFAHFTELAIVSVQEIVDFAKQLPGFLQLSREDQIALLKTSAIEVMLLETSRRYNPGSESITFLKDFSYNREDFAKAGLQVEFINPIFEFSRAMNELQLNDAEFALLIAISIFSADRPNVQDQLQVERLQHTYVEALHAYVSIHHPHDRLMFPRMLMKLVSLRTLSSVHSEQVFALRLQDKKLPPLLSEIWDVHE

[3] = biological target: T2, Oxysterols receptor LXR-beta (Homo sapiens, UniProt P55055); assay: Agonist activity at full length human LXRbeta transfected in HEK293T cells co-expressing ABCA1 assessed as increase in luciferase activity measured after 18 hrs by luciferase reporter gene assay; assay type: cell-based
T2 sequence (P55055 whole entry): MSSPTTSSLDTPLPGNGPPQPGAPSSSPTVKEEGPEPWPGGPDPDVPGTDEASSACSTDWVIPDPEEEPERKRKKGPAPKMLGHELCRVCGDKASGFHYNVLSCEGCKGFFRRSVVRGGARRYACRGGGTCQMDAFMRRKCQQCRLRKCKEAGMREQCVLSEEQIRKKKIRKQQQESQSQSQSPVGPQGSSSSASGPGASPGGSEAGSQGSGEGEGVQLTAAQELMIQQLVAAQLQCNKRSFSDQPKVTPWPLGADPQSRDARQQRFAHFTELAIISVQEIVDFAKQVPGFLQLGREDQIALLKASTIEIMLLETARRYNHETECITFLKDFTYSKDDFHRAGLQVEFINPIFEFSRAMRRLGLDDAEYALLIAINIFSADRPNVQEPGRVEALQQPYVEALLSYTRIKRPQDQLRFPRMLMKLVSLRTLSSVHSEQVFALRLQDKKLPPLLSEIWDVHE

Liver X receptor [4] = biological target: T3, Liver X receptor (Homo sapiens, UniProt Q13133+P55055); assay: Agonist activity at LXR in human HepG2 cells assessed as reduction in SREBP1c proteolytic processing upto 10 uM measured after 72 hrs by Western blot analysis; assay type: toxicity, cell-based; settings: hepg2, 72 h
T3 sequence (Q13133 whole entry): T1 sequence (Q13133 whole entry)
T3 sequence (P55055 whole entry): T2 sequence (P55055 whole entry)

Liver X receptor [5] = biological target: T3, Liver X receptor; assay: Agonist activity at LXR in human HepG2 cells assessed as reduction in HMGCR mRNA expression upto 10 uM measured after 72 hrs by RT-qPCR analysis; assay type: toxicity, cell-based; settings: hepg2, 72 h
[6] = biological target: T4, Liver X receptor (Homo sapiens) (UniProt Q13133+P55055); assay: Agonist activity at LXR in human THP-1 cells assessed as increase of ABCA1 protein expression level at 1 to 10 uM by Western blot analysis; assay type: cell-based; settings: filed as agonist, dose 1-10 µM
HepG2 [7] = assay: Effect on LDLR mRNA expression level in human HepG2 cells at 1 to 10 uM by RT-qPCR analysis; assay type: functional, cell-based; settings: dose 1-10 µM
Liver X receptor [8] = biological target: T3, Liver X receptor; assay: Agonist activity at LXR in human HepG2 cells assessed as increase in SREBF1 mRNA expression level at 1 to 10 uM measured after 72 hrs by RT-qPCR analysis; assay type: toxicity, cell-based; settings: hepg2, 72 h, dose 1-10 µM
Liver X receptor [9] = biological target: T3, Liver X receptor; assay: Agonist activity at LXR in human HepG2 cells assessed as increase in SREBF1 protein expression level at 1 to 10 uM measured after 72 hrs by Western blot analysis; assay type: toxicity, cell-based; settings: hepg2, 72 h, dose 1-10 µM
[10] = biological target: T4, Liver X receptor (Homo sapiens); assay: Agonist activity at LXR in human THP-1 cells assessed as increase of ABCG1 mRNA expression level at 1 to 10 uM by RT-qPCR analysis; assay type: cell-based; settings: filed as agonist, dose 1-10 µM
[11] = biological target: T5, Oxysterols receptor LXR-alpha (Homo sapiens) (UniProt Q13133); assay: Agonist activity at human LXRalpha-LBD transfected in HEK293T cells co-expressing Gal4-DBD assessed as increase in luciferase activity measured after 18 hrs by reporter gene assay; assay type: cell-based; settings: filed as agonist, dose 1-10 µM
T5 sequence (whole entry): T1 sequence (Q13133 whole entry)

[12] = biological target: T6, Oxysterols receptor LXR-beta (Homo sapiens) (UniProt P55055); assay: Agonist activity at human LXRbeta-LBD transfected in HEK293T cells co-expressing Gal4-DBD assessed as increase in luciferase activity measured after 18 hrs by reporter gene assay; assay type: cell-based; settings: filed as agonist, dose 1-10 µM
T6 sequence (whole entry): T2 sequence (P55055 whole entry)

HEK-293T = assay: Cytotoxicity against HEK293T cells transfected with LXRalpha assessed as cell viability at >10 uM measured after 18 hrs by luciferase reporter gene assay; assay type: toxicity, cell-based; settings: human
Homo sapiens = species: Homo sapiens; assay: Activation at RXR (unknown origin)
[13] = biological target: T7, Bile acid receptor (Homo sapiens) (UniProt Q96RI1); assay: Activation at FXR (unknown origin)
T7 sequence (whole entry): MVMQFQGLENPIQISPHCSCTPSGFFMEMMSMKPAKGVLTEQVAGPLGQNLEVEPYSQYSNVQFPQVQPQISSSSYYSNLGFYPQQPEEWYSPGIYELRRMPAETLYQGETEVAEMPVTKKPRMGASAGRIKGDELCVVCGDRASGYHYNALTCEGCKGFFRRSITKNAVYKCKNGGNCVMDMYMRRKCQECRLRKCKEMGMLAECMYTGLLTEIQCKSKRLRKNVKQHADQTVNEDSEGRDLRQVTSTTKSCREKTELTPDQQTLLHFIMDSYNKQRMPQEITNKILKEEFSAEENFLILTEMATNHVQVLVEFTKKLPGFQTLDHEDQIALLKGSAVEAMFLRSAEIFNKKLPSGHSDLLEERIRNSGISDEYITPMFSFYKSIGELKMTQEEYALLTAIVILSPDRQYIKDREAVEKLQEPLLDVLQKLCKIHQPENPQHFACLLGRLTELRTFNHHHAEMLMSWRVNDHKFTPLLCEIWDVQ

[14] = biological target: T8, Nuclear receptor ROR-gamma (Homo sapiens) (UniProt P51449); assay: Activation at RORgamma (unknown origin)
T8 sequence (whole entry): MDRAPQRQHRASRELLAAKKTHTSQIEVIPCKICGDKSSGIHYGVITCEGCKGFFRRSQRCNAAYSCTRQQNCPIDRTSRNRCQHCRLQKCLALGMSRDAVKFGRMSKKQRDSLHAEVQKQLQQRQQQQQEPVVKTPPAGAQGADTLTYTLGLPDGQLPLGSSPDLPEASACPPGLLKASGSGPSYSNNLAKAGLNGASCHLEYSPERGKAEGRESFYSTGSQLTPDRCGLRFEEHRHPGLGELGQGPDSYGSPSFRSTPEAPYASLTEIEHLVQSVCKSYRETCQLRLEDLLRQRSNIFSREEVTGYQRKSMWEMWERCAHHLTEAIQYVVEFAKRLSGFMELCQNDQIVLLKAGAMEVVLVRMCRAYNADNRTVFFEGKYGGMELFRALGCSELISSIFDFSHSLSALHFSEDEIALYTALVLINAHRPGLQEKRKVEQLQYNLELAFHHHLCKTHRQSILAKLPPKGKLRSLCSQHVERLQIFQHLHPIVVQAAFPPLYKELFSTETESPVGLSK

[15] = biological target: T4, Liver X receptor (Homo sapiens); assay: Agonist activity at LXR in cholesterol treated human THP-1 cells assessed as stimulation of plasma mediated cholesterol efflux pre incubated for 24 hrs followed by plasma addition measured after 6 hrs by liquid scintillation counting analysis; assay type: cell-based; settings: filed as agonist, dose 1-10 µM, time 30.0 hrs
[16] = biological target: T4, Liver X receptor (Homo sapiens); assay: Agonist activity at LXR in human THP-1 cells assessed as increase of ABCA1 mRNA expression level at 1 to 10 uM by RT-qPCR analysis; assay type: cell-based; settings: filed as agonist, dose 1-10 µM
[17] = biological target: T4, Liver X receptor (Homo sapiens); assay: Agonist activity at LXR in cholesterol treated human THP-1 cells assessed as stimulation of plasma mediated cholesterol efflux at 5 uM pre incubated for 24 hrs followed by plasma addition measured after 6 hrs by liquid scintillation counting analysis; assay type: cell-based; settings: filed as agonist
[18] = biological target: T4, Liver X receptor (Homo sapiens); assay: Agonist activity at LXR in human HepG2 cells assessed as increase of IDOL mRNA expression level at 10 uM by RT-qPCR analysis; assay type: cell-based; settings: filed as agonist
Liver X receptor [19] = biological target: T3, Liver X receptor; assay: Agonist activity at LXR in human HepG2 cells assessed as reduction in SREBP1c proteolytic processing measured after 72 hrs by Western blot analysis; assay type: toxicity, cell-based; settings: hepg2, 72 h, dose 1-10 µM
Liver X receptor [20] = biological target: T3, Liver X receptor; assay: Agonist activity at LXR in human HepG2 cells assessed as reduction in HMGCR mRNA expression measured after 72 hrs by RT-qPCR analysis; assay type: toxicity, cell-based; settings: hepg2, 72 h, dose 1-10 µM
HepG2 [21] = assay: Effect on LDLR mRNA expression level in human HepG2 cells at 1 uM by RT-qPCR analysis; assay type: functional, cell-based
Liver X receptor [22] = biological target: T3, Liver X receptor; assay: Agonist activity at LXR in human HepG2 cells assessed as increase in cellular lipid content at 1 uM measured after 72 hrs by Oil Red O staining based assay; assay type: toxicity, cell-based; settings: hepg2, 72 h

SMILES: CC(C)CC[C@@H](O)[C@@H](C)[C@H]1CC[C@H]2[C@@H]3CC=C4C[C@@H](O)CC[C@]4(C)[C@H]3CC[C@]12C [22(R)-HYDROXYCHOLESTEROL]
- Activity (HepG2 [1]): inactive
- EC50 [2]: 1200 nM
- EC50 [3]: 1500 nM
- Activity (Liver X receptor [4]): Not Active
- Activity (Liver X receptor [5]): Active

SMILES: CC(C)=C[C@@H]1C[C@@H]([C@@H]2CC[C@]3(C)C4=CC[C@H]5C(C)(C)C(=O)CC[C@]5(C)[C@H]4CC[C@@]23C)[C@H](O)O1
- Activity [6]: Active
- Activity (HepG2 [7]): inactive
- Activity (Liver X receptor [8]): Not Active
- EC50 [2]: 1600 nM
- EC50 [3]: 5300 nM
- Activity (Liver X receptor [9]): Not Active
- Activity [10]: Active
- Activity [11]: Dose-Dependent Effect
- Activity [12]: Dose-Dependent Effect
- Activity (HEK-293T): Toxic
- Activity (Homo sapiens): inactive
- Activity [13]: inactive
- Activity [14]: inactive
- Activity [15]: Active
- Activity [16]: Active
- Activity [17]: Active
- Activity [18]: Active
- Activity (Liver X receptor [19]): Dose-Dependent Effect
- Activity (Liver X receptor [20]): Dose-Dependent Effect

SMILES: O=C(O)Cc1cccc(OCCCN(Cc2cccc(C(F)(F)F)c2Cl)CC(c2ccccc2)c2ccccc2)c1
- Activity (HepG2 [21]): inactive
- Activity (Liver X receptor [22]): Toxic
